This note sets out measurements from US20250114380A1, “SMALL MOLECULE CD38 INHIBITORS AND METHODS OF USING SAME” (President and Fellows of Harvard College, priority 2011, published 2025).

One assay has as its system cellular NADase activity. Description: Cellular NADase activity. Type of assay: cell-based. The source says: FIG. 2A depicts inhibition in cellular NADase activity by CD38 inhibitors Apigenin and Quercetin. In certain embodiments, the invention relates to small molecules capable of inhibiting CD38 activity at nanomolar or micromolar concentrations (FIG. 1 and FIG. 3). Preliminary cellular assays on some of these compounds have shown that they are able to inhibit cellular NADase activity resulting in increased cellular NAD levels (FIG. 2a and FIG. 2b).

Assay [1] concerns murine oogonial stem cells (OSCs). Description: NAD+/NADH levels in oogonial stem cells. Type of assay: cell-based. The method, then:
(§1) Oogonial stem cells were isolated from dissociated ovaries using a FACS based sorting protocol to purify OSCs free of contaminating oocytes (White et al., in press). Cells were maintained in culture medium consisted of minimum essential medium α (MEMα), 10% FBS, 1 mM sodium pyruvate, 1 mM non-essential amino acids, 2 mM 1-glutamine, 0.1 mM β-mercaptoethanol (Sigma), 10 ng/ml-1 LIF (Millipore), 1× N-2 MAX Media Supplement (R&D) 10 ng/ml EGF (Epidermal growth factor, Recombinant human; Gibco), 40 ng/ml human GDNF (glial cell line-derived neurotrophic factor; R&D systems), 1 ng/ml human bFGF (basic fibroblast growth factor; Gibco)
(§2) For all experiments 25,000 cells were plated in each well of a 24 well plate. Cells were allowed to attach for 24 h and then were treated with NMN (β-Nicotinamide mononucleotide; Sigma). Unless otherwise stated, NMN was added at for 12 and again for 6 hours before analysis (12+6 h).
NAD+/NADH levels were measured according to the manufacturer's instructions using the NAD/NADH Quantitation Kit (Biovision)

The next assay has as its system murine OSCs. Description: Mitochondrial DNA copy number in OSCs. Type of assay: cell-based. The method, then: as §1, §2
Total cellular DNA was isolated from cells at the indicated time points using DNeasy Blood & Tissue Kit (Qiagen) according to the manufacturer's instructions. Mt DNA copy number was quantified using LightCycler 480 SYBR Green I Master (Roche Applied Science) using the following primers on a Roche 480 PCR machine.

Assay [2] is described as follows: NAD+ levels in vivo in mice. The method, then: Cardiac [NAD^+] declines with age and is reversed by NMN treatment (n=3; 200 mg/kg/d intraperitoneally for 1 week).
(§3) FIG. 11A depicts the restorative effects of an NAD^+ precursor (NMN) on mitochondrial function in vivo.

Assay [3] can be described thus: Mitochondrial function in skeletal muscle in vivo. Particulars: 24-month old mice, 1 week of treatment, I.P.
Description: as §3

For assay [4], the system named is cultured murine oogonial stem cells. Description: Spontaneous oocyte formation assay. Type of assay: cell-based. The following applies: 200 μM and 400 μM NMN. The method, then:
FIG. 9 depicts the increase in spontaneuous oocyte formation in cultured murine oogonial stem cells by nicotinamide mononucleotide. For assessment of spontaneous oocyte formation, each well of a 24-well plate was seeded with 25.000 OSCs, and the number of oocytes formed and released into the medium per well was assessed the second day after seeding as well as the designated time points after NMN treatment. Left bar=vehicle; middle bar=200 μM nicotinamide mononucleotide (NMN); right bar=400 μM NMN.
For assessment of spontaneous oocyte formation, each well of a 24-well plate was seeded with 25.000 OSCs, and the number of oocytes formed and released into the medium per well was assessed the second day after seeding as well as the designated time points after NMN treatment.

The next assay has as its system C2C 2 cells. Description: Mitochondrial function in C2C 2 cells. Type of assay: cell-based. Particulars: SIRT1-dependent (sh Ctl vs sh SIRT1).

For the compound `O=c1cc(-c2ccc(O)cc2)oc2cc(O)cc(O)c12` [Apigenin, 5,7,4′-Trihydroxyflavone], the “cellular NADase activity” value with cellular NADase activity is on record as “inhibition”.

Consider `O=c1c(O)c(-c2ccc(O)c(O)c2)oc2cc(O)cc(O)c12` [Quercetin, 3,5,7,3′,4′-Pentahydroxyflavone], for which the “cellular NADase activity” value in the assay on cellular NADase activity is reported as “inhibition”.

Take `NC(=O)c1ccc[n+]([C@@H]2O[C@H](COP(=O)([O-])O)[C@@H](O)[C@H]2O)c1` [NMN, β-Nicotinamide mononucleotide]: in assay [1], the “cellular NAD+” value is “increase”, the “cellular NAD+/NADH” value was “increase” and the “cellular NADH” value is reported as “increase”. Besides, the “mitochondrial DNA content” value with murine OSCs was “increase”. Besides, the “age-related decline of cardiac [NAD+]” value in assay [2] (200 mg/kg/d intraperitoneally for 1 week) was “reversed”. For the same compound, in assay [2] (intraperitoneal injection), the “rise of NAD+ levels in brain, heart and skeletal muscle” value is listed as 30-100%. Moreover, the “NAD+ levels in vivo” value in assay [2] (young and old mice) is on record as “raises NAD^+ levels”. Also, the “decline in mitochondrial function in skeletal muscle” value in assay [3] is listed as “completely reversed”. For the same compound, the spontaneous oocyte formation result in assay [4] was “increase”. Besides, the mitochondrial function result in the assay on C2C 2 cells was “increases mitochondrial function”.
